Measurements as given in patent publication US9487504B2, “Imidazolyl analogs as syk inhibitors” (Merck Sharp & Dohme Corp., priority 2012, dated 2016).
pIC50: −log10 of the molar value.

The molecules below were run against T1, recombinant human GST-Syk (Homo sapiens, UniProt P43405) (assay: Homogeneous Time-Resolved Fluorescence (HTRF) assay for the recombinant human Syk enzyme). Details: ATP 25 μM, 10-dose titration, read-out: rhSYK Activity.
T1 construct: purchased Carna Biosciences 08-176
Assay type: biochemical
Method: Syk inhibition may be determined using the following assay protocol:
Homogeneous Time-Resolved Fluorescence (HTRF) Assay for the Recombinant Human Syk Enzyme:
A recombinant GST-hSyk fusion protein was used to measure potency of compounds to inhibit human Syk activity. The recombinant human GST-Syk (Carna Biosciences #08-176) ([…]) was incubated with various concentrations of the inhibitor diluted in DMSO (0.1% final concentration) for 10 minutes at room temperature in 15 mM Tris-HCl (pH 7.5), 0.01% tween 20, 2 mM DTT in 384 well plate format. To initiate the reaction the biotinylated substrate peptide (250 nM final concentration) that contains the phosphorylation site for Syk was added with magnesium (5 mM final concentration) and ATP (25 μM final concentration). Final volume of the reaction was 10 μL. Phosphorylation of the peptide was allowed to proceed for 45 minutes at room temperature. To quench the reaction and detect the phosphorylated product, 2 nM of a Europium-anti-phosphotyrosine antibody (Perkin Elmer #AD0161) and 70 nM SA-APC (Perkin-Elmer #CR130-100) were added together in 15 mM Tris pH 7.5, 40 mM EDTA, 0.01% tween 20. Final volume of the quenching solution was 10 μL. The resulting HTRF signal was measured after 30 minutes on an EnVision (Perkin-Elmer) reader using a time-resolved fluorescence protocol. IC50 was determined following 10-dose titration (10 μM to 0.508 nM) and four parameter logistic curve fitting using the Merck Assay Data Analyzer. The rhSyk activity (IC50) is expressed as +++ (100 nM or less), ++ (between 100 and 1000 nM), + (between 1 and 10 μM).

SMILES | pIC50
Cc1cc(Nc2nccc(C(F)(F)F)n2)cc(-n2cnc(CCC(=O)O)c2)c1 [Example 76, 3-[1-(3-methyl-5-{[4-(trifluoromethyl)pyrimidin-2-yl]amino}-phenyl)-1H-imidazol-4-yl]propanoic acid] | ≥ 7.00
Cc1cc(Nc2cc(C(F)(F)F)ccn2)nc(-n2cnc([C@]3(O)CC[C@@H](OC(=O)c4ccccc4)CC3)c2)c1 [Example 64, cis-4-hydroxy-4-[1-(4-methyl-6-{[4-(trifluoromethyl)pyridin-2-yl]amino}pyridin-2-yl)-1H-imidazol-4-yl]cyclohexyl benzoate] | ≥ 7.00
Cc1cc(Nc2cc(C(F)(F)F)ccn2)nc(-n2cnc([C@]3(O)CC[C@H](O)CC3)c2)c1 [Example 61, trans-1-[1-(4-methyl-6-{[4-(trifluoromethyl)pyridin-2-yl]amino}pyridin-2-yl)-1H-imidazol-4-yl]cyclohexane-1,4-diol] | ≥ 7.00
Cc1cc(Nc2cc(Cl)ccn2)nc(-n2cnc(C(C)(C)O)c2)c1 [Example 95, 2-(1-{6-[(4-chloropyridin-2-yl)amino]-4-methylpyridin-2-yl}-1H-imidazol-4-yl)propan-2-ol] | ≥ 7.00
Cc1ccnc(Nc2cc(C)cc(-n3cnc([C@]4(O)CC[C@@H](OC(=O)c5ccccc5)CC4)c3)n2)c1 [Example 51, cis-4-hydroxy-4-(1-{4-methyl-6-[(4-methylpyridin-2-yl)amino]pyridin-2-yl}-1H-imidazol-4-yl)cyclohexyl benzoate] | ≥ 7.00
COC(=O)c1cn(-c2cc(Nc3nccc(C(F)(F)F)n3)cc(N3CCOCC3)c2)cn1 [Example 108, Methyl 1-(3-morpholin-4-yl-5-{[4-(trifluoromethyl)-pyrimidin-2-yl]amino}-phenyl)-1H-imidazole-4-carboxylate] | 6.00 to 7.00
Cc1cc(Nc2nccc(C(F)(F)F)n2)cc(-n2cnc([C@]3(O)CC[C@H](CC(=O)O)CC3)c2)c1 [Example 15, {trans-4-hydroxy-4-[1-(3-methyl-5-{[4-(trifluoromethyl)pyrimidin-2-yl]amino}phenyl)-1H-imidazol-4-yl]-cyclohexyl}acetic acid] | ≥ 7.00
Cc1cc(Nc2nccc(C(F)(F)F)n2)cc(-n2cnc([C@]3(O)CC[C@@H](O)[C@@H](C)C3)c2)c1 [Example 56, (1S,3S,4R)-3-methyl-1-[1-(3-methyl-5-{[4-(trifluoromethyl)pyrimidin-2-yl]amino}phenyl)-1H-imidazol-4-yl]cyclohexane-1,4-diol] | ≥ 7.00
COc1ccnc(Nc2cc(C)cc(-n3cnc([C@]4(O)CC[C@@H](O)CC4)c3)c2)n1 [Example 39, cis-1-(1-{3-[(4-methoxypyrimidin-2-yl)amino]-5-methylphenyl}-1H-imidazol-4-yl)cyclohexane-1,4-diol] | ≥ 7.00
C=C(C)c1cn(-c2cc(C)cc(Nc3nccc(C(F)(F)F)n3)c2)cn1 [Example 112, N-{3-Methyl-5-[4-(prop-1-en-2-yl)-1H-imidazol-1-yl]phenyl}-4-(trifluoromethyl)pyrimidin-2-amine] | ≥ 7.00
Cc1ccnc(Nc2cc(C)cc(-n3cnc([C@]4(O)CC[C@@H](O)CC4)c3)n2)c1 [Example 46, cis-1-(1-{4-methyl-6-[(4-methylpyridin-2-yl)amino]pyridin-2-yl}-1H-imidazol-4-yl)cyclohexane-1,4-diol] | ≥ 7.00
Cc1cc(Nc2nccc(C)n2)cc(-n2cnc([C@]3(O)CC[C@@H](O)CC3)c2)c1 [Example 38, Cis-1-(1-{3-methyl-5-[(4-methylpyrimidin-2-yl)amino]phenyl}-1H-imidazol-4-yl)cyclohexane-1,4-diol] | ≥ 7.00
Cc1cc(Nc2cc(C(C)(C)C)ccn2)nc(-n2cnc([C@]3(O)CC[C@@H](O)CC3)c2)c1 [Example 47, cis-1-(1-{6-[(4-tert-butylpyridin-2-yl)amino]-4-methylpyridin-2-yl}-1H-imidazol-4-yl)cyclohexane-1,4-diol] | ≥ 7.00
Cc1cc(Nc2ncc(F)c(C)n2)cc(-n2cnc([C@]3(O)CC[C@@H](O)CC3)c2)c1 [Example 57, cis-1-(1-{3-[(5-fluoro-4-methylpyrimidin-2-yl)amino]-5-methylphenyl}-1H-imidazol-4-yl)cyclohexane-1,4-diol] | ≥ 7.00
CCCCOC(=O)[C@H]1CC[C@H](C(C)(O)c2cn(-c3cc(C)cc(Nc4nccc(C)n4)c3)cn2)CC1 (relative stereo) [Example 11, Butyl trans-4-[1-hydroxy-1-(1-{3-methyl-5-[(4-methylpyrimidin-2-yl)amino]phenyl}-1H-imidazol-4-yl)ethyl]-cyclohexanecarboxylate] | 6.00 to 7.00
Cc1cc(Nc2nccc(C(F)(F)F)n2)cc(-n2cnc(C3(O)CCC(C(=O)O)C(C)(C)C3)c2)c1 (racemic) [Example 25, 4-hydroxy-2,2-dimethyl-4-[1-(3-methyl-5-{[4-(trifluoromethyl)pyrimidin-2-yl]amino}phenyl)-1H-imidazol-4-yl]-cyclohexanecarboxylic acid] | ≥ 7.00
Cc1cc(Nc2cc(C)c(Cl)cn2)nc(-n2cnc([C@]3(O)CC[C@@H](OC(=O)c4ccccc4)CC3)c2)c1 [Example 49, cis-4-(1-{6-[(5-chloro-4-methylpyridin-2-yl)amino]-4-methylpyridin-2-yl}-1H-imidazol-4-yl)-4-hydroxycyclohexyl benzoate] | 6.00 to 7.00
Cc1cc(Nc2nccc(C(F)(F)F)n2)cc(-n2cnc(C(C)(C)C#N)c2)c1 [Example 110, 2-Methyl-2-[1-(3-methyl-5-{[4-(trifluoromethyl)pyrimidin-2-yl]amino}phenyl)-1H-imidazol-4-yl]propanenitrile] | 6.00 to 7.00
Cc1cc(Nc2nccc(C(F)(F)F)n2)cc(-n2cnc(C3=CCC(C(=O)O)CC3)c2)c1 (stereo not shown) [Example 3, 4-[1-(3-methyl-5-{[4-(trifluoromethyl)pyrimidin-2-yl]amino}phenyl)-1H-imidazol-4-yl]cyclohex-3-ene-1-carboxylic acid] | ≥ 7.00
Cc1cc(Nc2nccc(C3CC3)n2)cc(-n2cnc(CCC(=O)O)c2)c1 [Example 75, 3-(1-{3-[(4-cyclopropylpyrimidin-2-yl)amino]-5-methylphenyl}-1H-imidazol-4-yl)propanoic acid] | ≥ 7.00
Cc1cc(Nc2cc(Cl)ccn2)nc(-n2cnc(C(O)(C3CC3)C3CC3)c2)c1 [Example 80, (1-{6-[(4-chloropyridin-2-yl)amino]-4-methylpyridin-2-yl}-1H-imidazol-4-yl)(dicyclopropyl)-methanol] | ≥ 7.00
Cc1cc(Nc2nccc(C(F)(F)F)n2)cc(-n2cnc(C3=CCC(C)(C(=O)O)CC3)c2)c1 (racemic) [Example 21, 1-methyl-4-[1-(3-methyl-5-{[4-(trifluoromethyl)-pyrimidin-2-yl]amino}-phenyl)-1H-imidazol-4-yl]cyclohex-3-ene-1-carboxylic acid] | ≥ 7.00
Cc1cc(Nc2cc(C(F)(F)F)ccn2)nc(-n2cnc([C@]3(O)CC[C@@H](O)CC3)c2)c1 [Example 62, cis-1-[1-(4-methyl-6-{[4-(trifluoromethyl)pyridin-2-yl]amino}pyridin-2-yl)-1H-imidazol-4-yl]cyclohexane-1,4-diol] | ≥ 7.00
Cc1cc(Nc2cc(C3CC3)ccn2)nc(-n2cnc(CCC(=O)O)c2)c1 [Example 115, 3-(1-(6-((4-cyclopropylpyridin-2-yl)amino)-4-methylpyridin-2-yl)-1H-imidazol-4-yl)propanoic acid] | ≥ 7.00
Cc1cc(Nc2cc(C(F)(F)F)ccn2)nc(-n2cnc([C@]3(O)CC[C@H](CC(=O)O)CC3)c2)c1 [Example 13, {trans-4-hydroxy-4-[1-(4-methyl-6-{[4-(trifluoromethyl)pyridin-2-yl]amino}pyridin-2-yl)-1H-imidazol-4-yl]cyclohexyl}acetic acid] | ≥ 7.00
Cc1cc(Nc2cc(C(F)(F)F)ccn2)nc(-n2cnc([C@]3(O)CC[C@H](C(=O)O)CC3)c2)c1 [Example 26, trans-4-hydroxy-4-[1-(4-methyl-6-{[4-(trifluoromethyl)pyridin-2-yl]amino}pyridin-2-yl)-1H-imidazol-4-yl]cyclohexanecarboxylic acid] | ≥ 7.00
Cc1cc(Nc2nccc(C(F)(F)F)n2)cc(-n2cnc([C@]3(O)CC[C@@H](C(=O)N(C)C)CC3)c2)c1 [Example 32, cis-4-hydroxy-N,N-dimethyl-4-[1-(3-methyl-5-{[4-(trifluoromethyl)-pyrimidin-2-yl]amino}-phenyl)-1H-imidazol-4-yl]cyclohexane-carboxamide] | ≥ 7.00
Cc1ccnc(Nc2cccc(-n3cnc(C(C)(C)O)c3)n2)c1 [Example 100, 2-(1-{6-[(4-methylpyridin-2-yl)amino]pyridin-2-yl}-1H-imidazol-4-yl)propan-2-ol] | 6.00 to 7.00
Cc1cc(Nc2nccc(C(F)(F)F)n2)cc(-n2cnc(C3=CCC(C(=O)O)C(C)(C)C3)c2)c1 (stereo not shown) [Example 4, 6,6-Dimethyl-4-[1-(3-methyl-5-{[4-(trifluoromethyl)pyrimidin-2-yl]amino}phenyl)-1H-imidazol-4-yl]cyclohex-3-ene-1-carboxylic acid] | ≥ 7.00

Same assay, conditions: ATP 25 μM, 10-dose titration, read-out: rhSYK IC50

SMILES | pIC50
Cc1cc(Nc2cc(C(F)(F)F)ccn2)nc(-n2cnc([C@]3(O)CC[C@@H](O)CC3)c2)c1 [Example 62, cis-1-[1-(4-methyl-6-{[4-(trifluoromethyl)pyridin-2-yl]amino}pyridin-2-yl)-1H-imidazol-4-yl]cyclohexane-1,4-diol] | 8.87
Cc1cc(Nc2nccc(C(F)(F)F)n2)cc(-n2cnc(C3=CCC(C(=O)O)C(C)(C)C3)c2)c1 (stereo not shown) [Example 4, 6,6-Dimethyl-4-[1-(3-methyl-5-{[4-(trifluoromethyl)pyrimidin-2-yl]amino}phenyl)-1H-imidazol-4-yl]cyclohex-3-ene-1-carboxylic acid] | 9.05
